Assay results published in US12458021B2, “Microbiocidal derivatives” (SYNGENTA CROP PROTECTION AG, priority 2019, dated 2025).

How the values were obtained:
[1] = system: Blumeria graminis f. sp. tritici (Erysiphe graminis f. sp. tritici); test: Blumeria graminis f. sp. tritici / wheat / leaf disc preventative (powdery mildew on wheat); format: in vivo; conditions: foliar, wheat leaf segments cv. Kanzler, inoculated 1 day after application, assessed 6-8 days after application, read-out: control of Blumeria graminis f. sp. tritici (percent disease control compared to untreated)
Excerpt: Example B4: Blumeria graminis f. sp. tritici (Erysiphe graminis f. sp. tritici)/Wheat/Leaf Disc Preventative (Powdery Mildew on Wheat) Wheat leaf segments cv. Kanzler are placed on agar in a multiwell plate (24-well format) and sprayed with the formulated test compound diluted in water. The leaf disks are inoculated by shaking powdery mildew infected plants above the test plates 1 day after application. […] […]-192.

[2] = system: Monographella nivalis (Microdochium nivale); test: Monographella nivalis (Microdochium nivale) / liquid culture (foot rot cereals); format: cell-based; conditions: PDB potato dextrose broth, 24° C., 4-5 days after application, read-out: control of Monographella nivalis (inhibition of growth, photometric)
Summary of the method: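 Cryostored M. nivalis conidia mixed into potato dextrose broth and added to 96-well plates holding test compound in DMSO. Incubated at 24° C; growth inhibition read photometrically 4-5 days after application.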

Pyrenophora teres = Pyrenophora teres / barley / leaf disc preventative (net blotch); format: in vivo; conditions: foliar, barley leaf segments cv. Hasso, inoculated 2 days after application, assessed 5-7 days after application, read-out: control of Pyrenophora teres (disease control compared to untreated)
Description: Example B13: Pyrenophora teres/Barley/Leaf Disc Preventative (Net Blotch) Barley leaf segments cv. Hasso are placed on agar in a multiwell plate (24-well format) and sprayed with the formulated test compound diluted in water. The leaf segments are inoculated with a spore suspension of the fungus 2 days after application. The inoculated leaf segments are incubated at 20° C. and 65% rh under a light regime of 12 h light/12 h darkness in a climate cabinet and the activity of a compound is assessed as disease control compared to untreated when an appropriate level of disease damage appears in untreated check leaf segments (5-7 days after application). […] […]-185.

[3] = system: Magnaporthe grisea (Pyricularia oryzae); test: whole plant or invertebrate; format: in vivo; conditions: foliar, read-out: control of Magnaporthe grisea (percent disease control compared to untreated)
[4] = system: Puccinia recondita f. sp. tritici; test: Puccinia recondita f. sp. tritici / wheat / leaf disc preventative (brown rust); format: in vivo; conditions: foliar, wheat leaf segments cv. Kanzler, inoculated 1 day after application, assessed 7-9 days after application, read-out: control of Puccinia recondita f. sp. tritici, preventative (percent disease control compared to untreated)
Description: Example B11: Puccinia recondita f. sp. tritici/Wheat/Leaf Disc Preventative (Brown Rust) Wheat leaf segments cv. Kanzler are placed on agar in multiwell plates (24-well format) and sprayed with the formulated test compound diluted in water. The leaf disks are inoculated with a spore suspension of the fungus 1 day after application. The inoculated leaf segments are incubated at 19° C. and 75% rh under a light regime of 12 h light/12 h darkness in a climate cabinet and the activity of a compound is assessed as percent disease control compared to untreated when an appropriate level of disease damage appears in untreated check leaf segments (7-9 days after application). […] […]-190.

[5] = system: Glomerella lagenarium (Colletotrichum lagenarium); test: Glomerella lagenarium (Colletotrichum lagenarium) / liquid culture (anthracnose); format: cell-based; conditions: Colletotrichum orbiculare, PDB potato dextrose broth, 24° C., 3-4 days after application, read-out: control of Glomerella lagenarium (inhibition of growth, photometric)
Summary of the method: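 Conidia from cryogenic storage suspended in potato dextrose broth and added to DMSO compound solution in plates. Incubated at 24° C; growth inhibition read photometrically 3-4 days after application.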

[6] = system: Mycosphaerella graminicola (Septoria tritici); test: Mycosphaerella graminicola (Septoria tritici) / liquid culture (Septoria blotch); format: cell-based; conditions: Zymoseptoria tritici, PDB potato dextrose broth, 24° C., 4-5 days after application, read-out: control of Mycosphaerella graminicola (inhibition of growth, photometric)
Summary of the method: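 Conidia from cryogenic storage were mixed into potato dextrose broth and added to test compound in DMSO. Plates were incubated at 24° C, and growth inhibition was read photometrically 4-5 days after application.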

Alternaria solani = Alternaria solani / tomato / leaf disc (early blight); format: in vivo; conditions: foliar, tomato leaf disks cv. Baby, inoculated 2 days after application, assessed 5-7 days after application, read-out: control of Alternaria solani (percent disease control compared to untreated)
Description: Example B1: Alternaria solani/Tomato/Leaf Disc (Early Blight) Tomato leaf disks cv. Baby are placed on agar in multiwell plates (24-well format) and sprayed with the formulated test compound diluted in water. The leaf disks are inoculated with a spore suspension of the fungus 2 days after application. The inoculated leaf disks are incubated at 23° C./21° C. […] […]-185.

[7] = system: Mycosphaerella arachidis (Cercospora arachidicola); test: Mycosphaerella arachidis (Cercospora arachidicola) / liquid culture (early leaf spot); format: cell-based; conditions: PDB potato dextrose broth, 24° C., 4-5 days after application, read-out: control of Mycosphaerella arachidis (inhibition of growth, photometric)
Description: Example B8: Mycosphaerella arachidis (Cercospora arachidicola)/Liquid Culture (Early Leaf Spot) Conidia of the fungus from cryogenic storage are directly mixed into nutrient broth (PDB potato dextrose broth). After placing a (DMSO) solution of test compound into a microtiter plate (96-well format), the nutrient broth containing the fungal spores is added. The test plates are incubated at 24° C. and the inhibition of growth is determined photometrically 4-5 days after application. […] […]-180.

[8] = system: Phaeosphaeria nodorum (Septoria nodorum); test: Phaeosphaeria nodorum (Septoria nodorum) / wheat / leaf disc preventative (glume blotch); format: in vivo; conditions: Parastagonospora nodorum, foliar, wheat leaf segments cv. Kanzler, inoculated 2 days after application, assessed 5-7 days after application, read-out: control of Phaeosphaeria nodorum (percent disease control compared to untreated)
Description: Example B6: Phaeosphaeria nodorum (Septoria nodorum)/Wheat/Leaf Disc Preventative (Glume Blotch) Wheat leaf segments cv. Kanzler are placed on agar in a multiwell plate (24-well format) and sprayed with the formulated test compound diluted in water. The leaf disks are inoculated with a spore suspension of the fungus 2 days after application. The inoculated test leaf disks are incubated at 20° C. and 75% rh under a light regime of 12 h light/12 h darkness in a climate cabinet and the activity of a compound is assessed as percent disease control compared to untreated when an appropriate level of disease damage appears in untreated check leaf disks (5-7 days after application). […] […]-190.

COc1ccc(Nc2cc(F)nc(F)c2)nc1C(=O)NC1CCC12CCCC2 (stereo not drawn) [Compound P-6, 6-[(2,6-difluoro-4-pyridyl)amino]-3-methoxy-N-spiro[3.4]octan-3-yl-pyridine-2-carboxamide]
≥ 80%: pest or weed control at 200 ppm [1] | inhibition at 20 ppm [2] | pest or weed control at 200 ppm (Pyrenophora teres) | pest or weed control at 200 ppm [3] | pest or weed control at 200 ppm [4] | inhibition at 20 ppm [5] | inhibition at 20 ppm [6] | pest or weed control at 200 ppm (Alternaria solani)

COc1ccc(Nc2cc(F)cc(F)c2)nc1C(=O)NCC(C)c1ccccc1 (stereo not drawn) [Compound P-23, 6-(3,5-difluoroanilino)-3-methoxy-N-(2-phenylpropyl)pyridine-2-carboxamide]
≥ 80%: inhibition at 20 ppm [2] | inhibition at 20 ppm [7] | pest or weed control at 200 ppm [3] | pest or weed control at 200 ppm [4] | inhibition at 20 ppm [5] | inhibition at 20 ppm [6]

COc1ccc(Nc2cc(F)cc(F)c2)nc1C(=O)NCc1ccccc1 [Compound P-25, N-benzyl-6-(3,5-difluoroanilino)-3-methoxy-pyridine-2-carboxamide]
≥ 80%: pest or weed control at 200 ppm [1] | inhibition at 20 ppm [2] | pest or weed control at 200 ppm [8] | pest or weed control at 200 ppm [3] | pest or weed control at 200 ppm [4] | inhibition at 20 ppm [5] | inhibition at 20 ppm [6]

COc1ccc(Nc2cc(F)cc(F)c2)nc1C(=O)NCCOc1ccc(F)cc1 [Compound P-27, 6-(3,5-difluoroanilino)-N-[2-(4-fluorophenoxy)ethyl]-3-methoxy-pyridine-2-carboxamide]
≥ 80%: inhibition at 20 ppm [2] | inhibition at 20 ppm [7] | pest or weed control at 200 ppm [8] | pest or weed control at 200 ppm [3] | pest or weed control at 200 ppm [4] | inhibition at 20 ppm [5] | inhibition at 20 ppm [6]

COc1ccc(Nc2cc(F)nc(F)c2)nc1C(=O)NCCC(C)C [Compound P-29, 6-[(2,6-difluoro-4-pyridyl)amino]-N-isopentyl-3-methoxy-pyridine-2-carboxamide]
≥ 80%: pest or weed control at 200 ppm [1] | inhibition at 20 ppm [2] | pest or weed control at 200 ppm (Pyrenophora teres) | pest or weed control at 200 ppm [3] | pest or weed control at 200 ppm [4] | inhibition at 20 ppm [5] | inhibition at 20 ppm [6]

COc1ccc(Nc2cnsc2)nc1C(=O)NC(C)CCCC(C)C (stereo not drawn) [Compound P-36, N-(1,5-dimethylhexyl)-6-(isothiazol-4-ylamino)-3-methoxy-pyridine-2-carboxamide]
≥ 80%: inhibition at 20 ppm [2] | inhibition at 20 ppm [7] | inhibition at 20 ppm [5] | inhibition at 20 ppm [6]

CC1(C)CCC1NC(=O)c1nc(Nc2cc(F)cc(F)c2)ccc1OC(F)F (stereo not drawn) [Compound P-46, 6-(3,5-difluoroanilino)-3-(difluoromethoxy)-N-(2,2-dimethylcyclobutyl)pyridine-2-carboxamide]
≥ 80%: inhibition at 20 ppm [2] | inhibition at 20 ppm [7] | pest or weed control at 200 ppm [8] | pest or weed control at 200 ppm [3] | inhibition at 20 ppm [5] | inhibition at 20 ppm [6]

COc1ccc(Nc2cc(F)cc(F)c2)nc1C(=O)NC1C2CCOC2C1(C)C (stereo not drawn) [Compound P-76, 6-(3,5-difluoroanilino)-N-(7,7-dimethyl-2-oxabicyclo[3.2.0]heptan-6-yl)-3-methoxy-pyridine-2-carboxamide]
≥ 80%: pest or weed control at 200 ppm [1] | inhibition at 20 ppm [2] | pest or weed control at 200 ppm (Pyrenophora teres) | pest or weed control at 200 ppm [3] | pest or weed control at 200 ppm [4] | inhibition at 20 ppm [5] | inhibition at 20 ppm [6] | pest or weed control at 200 ppm (Alternaria solani)

COc1ccc(Nc2cnsc2)nc1C(=O)NC1CCc2cc(C(F)(F)F)ccc21 (stereo not drawn) [Compound P-79, 6-(isothiazol-4-ylamino)-3-methoxy-N-[5-(trifluoromethyl)indan-1-yl]pyridine-2-carboxamide]
≥ 80%: inhibition at 20 ppm [2] | inhibition at 20 ppm [7] | pest or weed control at 200 ppm [4] | inhibition at 20 ppm [5] | inhibition at 20 ppm [6]

COc1ccc(Nc2cc(F)nc(F)c2)nc1C(=O)NC(C)CCCC(C)C (stereo not drawn) [Compound P-102, 6-[(2,6-difluoro-4-pyridyl)amino]-N-(1,5-dimethylhexyl)-3-methoxy-pyridine-2-carboxamide]
≥ 80%: inhibition at 20 ppm [2] | inhibition at 20 ppm [7] | pest or weed control at 200 ppm (Pyrenophora teres) | pest or weed control at 200 ppm [3] | pest or weed control at 200 ppm [4] | inhibition at 20 ppm [5] | inhibition at 20 ppm [6]

COc1ccc(Nc2cccc(C#N)c2)nc1C(=O)NC(C)(C)C [Compound P-146, N-tert-butyl-6-(3-cyanoanilino)-3-methoxy-pyridine-2-carboxamide]
≥ 80%: inhibition at 20 ppm [2] | pest or weed control at 200 ppm [8] | pest or weed control at 200 ppm [3] | pest or weed control at 200 ppm [4] | inhibition at 20 ppm [5] | inhibition at 20 ppm [6] | pest or weed control at 200 ppm (Alternaria solani)
